Laboratory results taken from PubChem BioAssay (NCI).
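Values below derive from 48-hour exposures of cells grown in 96-well plates, with endpoints linearly interpolated between the two concentrations bracketing the appropriate inhibition level. Here, GI50 denotes the concentration required for 50% inhibition of growth. TGI denotes the concentration required for complete inhibition of growth.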

Assays:
Assay in all cases: NCI-60 cell line screen, 48 h
PC-3 prostate = tested on: PC-3 prostate
HS 578T breast = tested on: HS 578T breast
SK-MEL-2 melanoma = tested on: SK-MEL-2 melanoma
BT-549 breast = tested on: BT-549 breast
RXF 393 renal = tested on: RXF 393 renal
UACC-257 melanoma = tested on: UACC-257 melanoma
SF-539 CNS = tested on: SF-539 CNS
ACHN renal = tested on: ACHN renal

SMILES | TGI (PC-3 prostate) [µM] | TGI (HS 578T breast) [µM] | TGI (SK-MEL-2 melanoma) [µM] | TGI (BT-549 breast) [µM] | TGI (RXF 393 renal) [µM] | TGI (UACC-257 melanoma) [µM] | TGI (SF-539 CNS) [µM] | TGI (ACHN renal) [µM] | GI50 (PC-3 prostate) [µM] | GI50 (BT-549 breast) [µM] | GI50 (RXF 393 renal) [µM] | GI50 (SF-539 CNS) [µM] | GI50 (UACC-257 melanoma) [µM] | GI50 (ACHN renal) [µM]
COc1cc2cc(C(=O)N3CC(CCl)c4c3cc(N)c3ccccc43)[nH]c2cc1OCCN(C)C (stereo not given) | 5.5 | 0.125 | 0.00726 | 0.409 | < 0.005 | 16.8 |  |  |  |  |  |  |  | 
COC(=O)C(/C(=N/NC(=O)c1ccncc1)C(=O)Nc1ccccc1OC)c1nc2ccc(Cl)cc2[nH]c1=O (stereo not given) | > 100 | > 100 | > 100 | > 100 | > 100 | > 100 | > 100 | > 100 |  |  |  |  |  | 
CC[C@]12C=CCN3CCC4(c5cc(N=Nc6ccccc6)c(OC)cc5N(C)[C@H]4[C@@](O)(C(=O)OC)[C@@H]1OC(C)=O)[C@@H]32 (stereo not given in full) | 29.8 | 39 | 31.4 | 35.6 | 30.9 | 34.9 | 48.3 | 30.1 |  |  |  |  |  | 
N#CC1=C(N)C(C#N)(C#N)C(c2ccc(F)cc2)C=C1C1CC1 (stereo not given) | 21.8 | > 100 | 19.4 | 12.5 | 18.6 | 21.1 | 2.42 | 25.6 |  |  |  |  |  | 
CCN(CC)CCO/N=C1\CC[C@H]2[C@@H]3CC=C4C[C@@H](O)CC[C@]4(C)[C@H]3CC[C@]12C | 50.2 | > 100 | 48.4 | 44.4 | 34.1 | 30.4 | 27.6 | > 100 |  |  |  |  |  | 
COc1ccc(C(O)c2ccc3c(c2)OCO3)cc1 (stereo not given) | > 100 |  |  | > 100 | > 100 | > 100 | > 100 | > 100 |  |  |  |  |  | 
N#CCCC1C(C#N)C2CC1C1C3C=CC(C3)C21 (stereo not given) | > 100 | > 100 | > 100 | > 100 | > 100 | > 100 |  | > 100 |  |  |  |  |  | 
Nc1ccc2c(c1)C(=O)c1ccccc1-2 | > 100 | > 100 | > 100 | 83.5 | > 100 | > 100 | > 100 | > 100 |  |  |  |  |  | 
CC1=C(C(=O)OCCc2ccc([N+](=O)[O-])cc2)C(c2ccccc2[N+](=O)[O-])C(C(=O)OC(C)C)=C(C)N1 (stereo not given) | 18 | > 100 | 40.9 | 71.2 | 35.9 | > 100 | > 100 | > 100 |  |  |  |  |  | 
O=C(Nn1c(-c2ccccc2)nc2ccccc2c1=O)c1ccccn1 | > 100 | > 100 |  | > 100 | > 100 | > 100 | > 100 | > 100 |  |  |  |  |  | 
COC(=O)[C@H](C)N1C(=O)N[C@@H](C(C)C)C1=O | > 100 |  | > 100 | > 100 | > 100 | > 100 | > 100 | > 100 |  |  |  |  |  | 
COC(=O)c1ccc(-c2nc(C#N)c(N)o2)cc1 | > 100 | > 100 | > 100 | > 100 | > 100 | > 100 | > 100 | > 100 |  |  |  |  |  | 
CC(=O)/C=C/C=C(\C)CC/C=C(\C)CC(C)C | > 100 | > 100 | 42.3 |  | 30.3 | 60 | 46.8 | > 100 |  |  |  |  |  | 
O=C(O)/C=C(/CC(=O)O)C(=O)O | 40.2 | 40.7 | 41.9 | 43.7 | 34.8 | > 100 | 26 | 33.3 |  |  |  |  |  | 
COP(=O)(OC)C(N)CCSC (stereo not given) | > 100 | > 100 | > 100 | > 100 |  | > 100 |  | > 100 |  |  |  |  |  | 
COC(=O)c1sc(=S)sc1SCc1ccccc1CSc1sc(=S)sc1C(=O)OC | > 100 | > 100 | > 100 | > 100 | > 100 | > 100 |  | > 100 |  |  |  |  |  | 
O=C(C1=C(C(=O)c2ccccc2)SC2(S1)C(C(=O)c1ccccc1)=C(C(=O)c1ccccc1)Sc1c2ssc1=O)c1ccccc1 | > 100 | > 100 | > 100 | > 100 | > 100 | > 100 | 57.6 | > 100 |  |  |  |  |  | 
O=C(/C=C/c1ccc(-c2ccccc2[N+](=O)[O-])o1)NCc1ccc(C(=O)NCCc2ccccc2)cc1 | > 100 | > 100 | > 100 | > 100 | > 100 | > 100 | > 100 | > 100 |  |  |  |  |  | 
Cc1nnc2cc(C(=O)O)c3ccccc3n2c1=O | > 10 | > 10 | > 10 | > 10 | > 10 | > 10 | > 10 |  |  |  |  |  |  | 
CN=C(Nn1cnnc1)OC | > 100 | > 100 | > 100 |  | > 100 | > 100 |  | > 100 |  |  |  |  |  | 
N#Cc1c(Nc2ccc(F)cc2)[n+]([O-])c2ccc(Cl)cc2[n+]1[O-] | > 100 | > 100 | 77.9 | 74.4 | 27.3 | 11.9 | 7.31 |  |  |  |  |  |  | 
CCOC(=O)c1ccc(C(=O)C(C(C)=O)C(=O)OC(C)(C)C)n1C (stereo not given) | > 100 | > 100 | > 100 | > 100 | > 100 | > 100 |  | > 100 |  |  |  |  |  | 
O=C1c2[nH]cc(CN3CCNCC3)c2C(=O)c2c1c(O)c1ccccc1c2O | 4.41 |  |  | 20.3 | 71.2 |  | 3.31 | 3.37 | 1.83 | 4.86 | 23.9 | 1.85 | 4.47 | 1.57
O=C(CC(O)(C(F)(F)F)C(F)(F)F)C(CCCl)C(O)(C(F)(F)F)C(F)(F)F (stereo not given) | > 100 | > 100 | > 100 |  | 70.9 | 91.2 | > 100 | > 100 |  |  |  |  |  | 
CC1(C)O[C@@H](CO)[C@H]([C@@]23OC[C@H]4OC(C)(C)OC4[C@@H]2OC(C)(C)O3)O1 (stereo not given in full) | > 100 | > 100 | > 100 |  | > 100 |  |  | > 100 |  |  |  |  |  | 
CC1(C)COC(c2cccc(C3=NC(C)(C)CO3)c2Br)=N1 | > 100 |  | > 100 | > 100 | > 100 | > 100 | > 100 | > 100 |  |  |  |  |  | 
